For series [1], the target named is T1, AhR (Homo sapiens, UniProt P35869).
T1 construct: One of the resultant clones was named HEK-XRE 11.1, and used in the reporter gene assays; endogenous in cells; host or cells: HEK-XRE 11.1 (HEK cells stably carrying the AhR-responsive luciferase reporter X4-4.27 and phRL-CMV)
T1 sequence (P35869 11-848): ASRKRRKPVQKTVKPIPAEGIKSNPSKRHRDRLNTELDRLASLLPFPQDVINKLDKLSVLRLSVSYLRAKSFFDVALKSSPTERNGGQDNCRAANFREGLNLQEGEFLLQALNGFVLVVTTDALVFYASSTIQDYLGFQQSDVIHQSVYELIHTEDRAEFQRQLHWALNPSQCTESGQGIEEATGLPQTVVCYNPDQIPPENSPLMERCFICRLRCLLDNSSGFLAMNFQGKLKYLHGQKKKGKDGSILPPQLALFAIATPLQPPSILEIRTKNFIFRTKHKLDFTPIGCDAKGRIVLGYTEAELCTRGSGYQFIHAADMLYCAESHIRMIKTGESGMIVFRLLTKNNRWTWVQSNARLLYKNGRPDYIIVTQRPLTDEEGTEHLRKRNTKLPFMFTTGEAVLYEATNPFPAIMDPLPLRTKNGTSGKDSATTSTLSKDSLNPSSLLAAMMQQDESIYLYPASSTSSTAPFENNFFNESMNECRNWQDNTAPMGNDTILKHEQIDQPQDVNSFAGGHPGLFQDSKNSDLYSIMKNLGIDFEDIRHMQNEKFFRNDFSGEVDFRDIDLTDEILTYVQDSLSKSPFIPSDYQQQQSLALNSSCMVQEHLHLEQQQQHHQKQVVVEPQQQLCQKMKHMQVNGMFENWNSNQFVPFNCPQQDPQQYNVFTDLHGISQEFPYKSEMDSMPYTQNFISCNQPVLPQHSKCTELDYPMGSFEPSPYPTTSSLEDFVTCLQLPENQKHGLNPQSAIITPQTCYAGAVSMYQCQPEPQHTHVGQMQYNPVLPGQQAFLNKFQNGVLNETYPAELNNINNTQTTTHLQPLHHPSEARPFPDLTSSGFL
The series can be described thus: Inhibition of AhR-mediated gene transcription (HEK-XRE 11.1 luciferase reporter, MeBIO induction). It is filed as cell-based. To be noted: HEK-XRE 11.1 cells, MeBIO 0.1 nM, luminescence after 24 hours. The procedure:
HEK cells line was transfected with an AhR-responsive firefly luciferase reporter gene X4-4.27 and the stable transfectants generated were again transfected with phRL-CMV (a Renilla luciferase expression vector; Promega) along with pBAsi-hU6 Pur DNA (a plasmid carrying the puromycin-resistant gene; TaKaRa, Shiga, Japan), and maintained in the presence of both hygromycin B and puromycin (2 mg/mL). One of the resultant clones was named HEK-XRE 11.1, and used in the reporter gene assays.
HEK-XRE 11.1 cells were plated in 384-well plates at a density of 25,000 cells in 50 uL volume per well. The induction of ARh pathway was done by addition of MeBIO at 0.1 nM concentration. ARh antagonist compounds were then added to seeded cells in serial dilutions (8 dilutions, 1:[…] down to 5 nM) in duplicate wells. Renilla expression was not used as internal control. On each plate, Compound 1001 and SR1 were added as dose control (8 dilutions, 1:3, 5 mM down to 2.5 nM for SR1 and 2 mM down to 1 nM for compound 1001). Luminescence activity was evaluated after 24 hours culture using Lumi-384-CellTiterGlo-Corning protocol. Dose-response curves were generated using nonlinear regression in Excel.
(Reporter assays use an easily measured gene product as a stand-in for the process of interest.)

Series [2] concerns Human CD34+ cord blood (CB) cells. The series can be described thus: CD34+ activity assessment (7-day expansion of pre-expanded CD34+ cells, flow cytometry). The format is cell-based. To be noted: concentration at which compound/vehicle ratio of CD34+ cell number is >= 1.5; 7 days, with 35 nM UM0128171; Table 1. The procedure:
Human CD34+ cord blood (CB) cells were isolated from fresh units using RosetteSep™ 0034 pre-enrichment cocktail followed by CD34 positive selection using EasySep Kit™ (StemCell Technologies). The cells were then pre-expanded in bulk, by culturing at 37° C. for 6 days in HSC expansion media consisting of StemSpan ACF (StemCell Technologies) supplemented with 100 ng/mL Stem Cell Factor (SCF, Shenandoah), 100 ng/mL FMS-like Tyrosine Kinase 3 Ligand (FLT3L, Shenandoah), 50 ng/mL Thrombopoietin (TPO, Shenandoah), 2 mM GlutaMAX™ (Invitrogen), 10 μg/mL low density lipoproteins (LDL, StemCell Technologies), 10 μg/mL Ciprofloxacin and 35 nM UM0128171. […] Following the pre-expansion, cells were harvested, aliquoted and frozen until use.
For each activity assessment, CD34+ pre-expanded cells (approximately 2000 per well in a 384-well plate) were cultured in HSC expansion media, in the presence of 35 nM UM0128171. Compounds were serially diluted (1/2) in DMSO (10 dilutions per compound) and added to the cells in order to achieve a 1/1000 final dilution. StemRegenin1 (SR1) and/or Compound 1001 were included in all experiments as controls to monitor assay performance. The plate was incubated at 37° C. for 7 days in static conditions (i.e. no shaking and no addition of media). Flow cytometry analysis was performed at the end of the 7-day expansion. Cells were stained with PE-labeled anti-human CD45RA (BD Biosciences) and APC-labeled anti-human CD34 (BD Biosciences) and analyzed using Intellicyt IQue cytometer equipped with ForeCyt software. Gates were drawn around the populations of interest to obtain cell numbers and relative proportions. The EC1.5 value, which is the concentration at which the compound/vehicle ratio is greater or equal to 1.5, was calculated by plotting the CD34+ cell number against concentrations (log-scale) in a 4-PL curve and fitting the curve using IDBS XLfit (set model 251) in Microsoft Excel.
On the technique in general: Flow cytometry measures light scatter and fluorescence of single cells or particles in a stream.

Each structure is given as a SMILES string.

As usually defined, the IC50 is the concentration that gives 50% inhibition. Low values mean greater potency in that assay, high ones weaker potency in that assay. `Nc1c(C(=O)Nc2ccc(F)cc2)sc2nc3c(cc12)CCC3` [Compound 1002]: in series [1] (Table 1), the IC50 was less than 50 nM.
On the same count and under the same terms, next, `Nc1c(C(=O)Nc2ccccc2)sc2ncc(Br)cc12` [Compound 1003]: less than 50 nM.
As to `Nc1c(C(=O)Nc2ccccc2)sc2ncc(Cl)cc12` [Compound 1004], the EC1.5 in series [2] is 100 to 1000 nM. Further, the IC50 in series [1] (Table 1) was less than 50 nM.
The like results for `Cc1cc2c(N)c(C(=O)Nc3ccccc3)sc2nc1C` [Compound 1005] were, in that order, 100 to 1000 nM and 50 to 500 nM.
For `Nc1c(C(=O)Nc2cccnc2)sc2nc3c(cc12)CCC3` [Compound 1006], in that order: 1000 to 5000 nM and 50 to 500 nM.
For `Nc1c(C(=O)Nc2ccccn2)sc2nc3c(cc12)CCC3` [Compound 1007], in that order: 100 to 1000 nM and less than 50 nM.
Take `Nc1c(C(=O)Nc2ccccc2)sc2ncc(C(F)(F)F)cc12` [Compound 1008]: the EC1.5 in series [2] is 100 to 1000 nM. Also, in series [1] (Table 1), the IC50 is greater than 500 nM.
On to `Cc1cnc2sc(C(=O)Nc3ccccc3)c(N)c2c1` [Compound 1009], for which the IC50 in series [1] (Table 1) is less than 50 nM.
For `Nc1c(C(=O)Nc2ccccc2)sc2ncc(F)cc12` [Compound 1010], the EC1.5 in series [2] is recorded as greater than 5000 nM. Further, the IC50 in series [1] (Table 1) fell in the range of 50 to 500 nM.
Turning to `Nc1c(C(=O)Nc2ccncc2)sc2ncc(Cl)cc12` [Compound 1011], the EC1.5 in series [2] lay in the range of 1000 to 5000 nM. Moreover, the IC50 in series [1] (Table 1) is less than 50 nM.
As for `Nc1c(C(=O)Nc2ccncc2)sc2ncc(Br)cc12` [Compound 1012], the IC50 in series [1] (Table 1) was in the range of 50 to 500 nM.
For the molecule `Nc1c(C(=O)Nc2ccncc2)sc2ncc(C(F)(F)F)cc12` [Compound 1013], the EC1.5 in series [2] fell in the range of 100 to 1000 nM. This molecule also displayed an IC50 in series [1] (Table 1) greater than 500 nM.
Turning to `Nc1c(C(=O)Nc2ccncc2)sc2nc3c(cc12)CCC3` [Compound 1014], in series [2], the EC1.5 fell in the range of 1000 to 5000 nM. The IC50 in series [1] (Table 1) was 50 to 500 nM.
For `Nc1c(C(=O)Nc2cccnc2)sc2ncc(C(F)(F)F)cc12` [Compound 1015], in that order: 100 to 1000 nM and greater than 500 nM.
The like results for `N#Cc1cnc2sc(C(=O)Nc3ccccc3)c(N)c2c1` [Compound 1016] were, in that order, 100 to 1000 nM and greater than 500 nM.
The like results for `Nc1c(C(=O)Nc2ccc(CCO)cc2)sc2ncc(C(F)(F)F)cc12` [Compound 1017] were, in that order, 100 to 1000 nM and 50 to 500 nM.
As for `COCc1ccc(NC(=O)c2sc3ncc(C(F)(F)F)cc3c2N)cc1` [Compound 1018], the EC1.5 in series [2] lay within 1000 to 5000 nM. The molecule also showed an IC50 in series [1] (Table 1) of less than 50 nM.
For `Nc1c(C(=O)Nc2ccc(CO)cc2)sc2ncc(C(F)(F)F)cc12` [Compound 1019], in that order: greater than 5000 nM and greater than 500 nM.
The molecule `C#Cc1cnc2sc(C(=O)Nc3ccncc3)c(N)c2c1` [Compound 1020] came in with an IC50 in series [1] (Table 1) of 50 to 500 nM.
On the same count and under the same terms, as for `CCc1cnc2sc(C(=O)Nc3ccncc3)c(N)c2c1` [Compound 1021], the figure is 50 to 500 nM.
For `Nc1c(C(=O)Nc2ccccn2)sc2ncc(C(F)(F)F)cc12` [Compound 1022], the EC1.5 in series [2] lay in the range of 100 to 1000 nM. This molecule also registered an IC50 in series [1] (Table 1) of less than 50 nM.
For `Cc1cnc(NC(=O)c2sc3ncc(C(F)(F)F)cc3c2N)s1` [Compound 1023], in that order: greater than 5000 nM and 50 to 500 nM.
The like results for `CCc1ccc(NC(=O)c2sc3ncc(C(F)(F)F)cc3c2N)cc1` [Compound 1024] were, in that order, 100 to 1000 nM and less than 50 nM.
The like results for `Nc1c(C(=O)Nc2ccccc2)sc2cnc(C(F)(F)F)cc12` [Compound 1025] were, in that order, 100 to 1000 nM and less than 50 nM.
Consider `Nc1c(C(=O)Nc2ccncc2)sc2cnc(C(F)(F)F)cc12` [Compound 1026], for which, in series [2], the EC1.5 fell in the range of 1000 to 5000 nM. Besides, the IC50 in series [1] (Table 1) was in the range of 50 to 500 nM.
`Nc1c(C(=O)Nc2ccccc2)sc2ccc(C(F)(F)F)nc12` [Compound 1027]: the EC1.5 in series [2] is given as greater than 5000 nM. The molecule further showed an IC50 in series [1] (Table 1) of less than 50 nM.
For `Nc1c(C(=O)Nc2ccncc2)sc2ccc(C(F)(F)F)nc12` [Compound 1028], in that order: greater than 5000 nM and 50 to 500 nM.
The like results for `Nc1c(C(=O)Nc2ccc3ncsc3c2)sc2ncc(C(F)(F)F)cc12` [Compound 1029] were, in that order, 100 to 1000 nM and 50 to 500 nM.
`Nc1c(C(=O)Nc2ccc(-c3ccccc3)cc2)sc2ncc(C(F)(F)F)cc12` [Compound 1030]: the EC1.5 in series [2] is listed as greater than 5000 nM. In addition, in series [1] (Table 1), the IC50 fell in the range of 50 to 500 nM.
The like results for `Nc1c(C(=O)Nc2ccc(OCc3ccccc3)cc2)sc2ncc(C(F)(F)F)cc12` [Compound 1031] were, in that order, 100 to 1000 nM and 50 to 500 nM.
`Nc1c(C(=O)Nc2ccc(Br)cc2)sc2ncc(C(F)(F)F)cc12` [Compound 1037]: the IC50 in series [1] (Table 1) is less than 50 nM.
The same measure, in the same setting: next, `Nc1c(C(=O)Nc2ccc(Br)cc2)sc2cnc(C(F)(F)F)cc12` [Compound 1049]: 50 to 500 nM.
As for `Nc1c(C(=O)Nc2ccc(-c3cccnc3)cc2)sc2ncc(C(F)(F)F)cc12` [Compound 1055], in series [1] (Table 1), the IC50 was 50 to 500 nM.
On the same count and under the same terms, as for `Nc1c(C(=O)Nc2ccc(F)cc2)sc2ncc(C(F)(F)F)cc12` [Compound 1060], the figure is less than 50 nM.
Same read-out and setting: next, `C=C(C)c1cnc2sc(C(=O)Nc3ccccc3)c(N)c2c1` [Compound 1090]: less than 50 nM.
In the case of `CC(C)c1cnc2sc(C(=O)Nc3ccccc3)c(N)c2c1` [Compound 1103], in series [1] (Table 1), the IC50 was less than 50 nM.
The same measure, in the same setting: next, `C=CCc1cnc2sc(C(=O)Nc3ccccc3)c(N)c2c1` [Compound 1111]: 50 to 500 nM; `CCc1cnc2sc(C(=O)Nc3ccccc3)c(N)c2c1` [Compound 1112]: 50 to 500 nM; `Cc1ccc2sc(C(=O)Nc3ccccc3)c(N)c2c1` [Compound 1118]: less than 50 nM.
As to `Nc1c(C(=O)Nc2ccc(F)cn2)sc2ncc(C(F)(F)F)cc12` [Compound 1128], in series [2], the EC1.5 fell in the range of 100 to 1000 nM.
As to `CSc1ccc(NC(=O)c2sc3ncc(C(F)(F)F)cc3c2N)cc1` [Compound 1133], the IC50 in series [1] (Table 1) was less than 50 nM.
On the same count and under the same terms, next, `CCCc1cnc2sc(C(=O)Nc3ccccc3)c(N)c2c1` [Compound 1134]: less than 50 nM.
`Nc1c(C(=O)Nc2ccccc2)oc2nc3c(cc12)CCC3` [Compound 1153]: the IC50 in series [1] (Table 2) lay within 50 to 500 nM.

(Values after US11696928B2, “Compounds and use thereof in the expansion of stem cells and/or progenitor cells” (UNIVERSITE DE MONTREAL, priority 2017, dated 2023).)
